# Measurements reported in ChEMBL document CHEMBL1157622, “Synthesis and antiproliferative evaluation of certain indolo[3,2-c]quinoline derivatives” (Bioorg Med Chem, 2010).
# Calls of active or inactive are those of the source. The rule behind the calls is not given here.
# Key:
# HeLa [1] = test: Antiproliferative activity against human HeLa cells by MTT assay; assay type: functional, cell-based
# A549 = test: Antiproliferative activity against human A549 cells by MTT assay; assay type: functional, cell-based
# [2] = Antiproliferative activity against human SKHep cells by MTT assay; assay type: functional, cell-based
# PC-3 [3] = test: Antiproliferative activity against human PC3 cells by MTT assay; assay type: functional, cell-based
# Detroit 551 = test: Antiproliferative activity against human Detroit 551 cells by MTT assay; assay type: cell-based
# [4] = target: T1, DNA topoisomerase 1 (Homo sapiens) (UniProt P11387); test: Inhibition of topoisomerase 1-mediated unwinding of supercoiled plasmid DNA at 10 uM
# T1 sequence (whole entry): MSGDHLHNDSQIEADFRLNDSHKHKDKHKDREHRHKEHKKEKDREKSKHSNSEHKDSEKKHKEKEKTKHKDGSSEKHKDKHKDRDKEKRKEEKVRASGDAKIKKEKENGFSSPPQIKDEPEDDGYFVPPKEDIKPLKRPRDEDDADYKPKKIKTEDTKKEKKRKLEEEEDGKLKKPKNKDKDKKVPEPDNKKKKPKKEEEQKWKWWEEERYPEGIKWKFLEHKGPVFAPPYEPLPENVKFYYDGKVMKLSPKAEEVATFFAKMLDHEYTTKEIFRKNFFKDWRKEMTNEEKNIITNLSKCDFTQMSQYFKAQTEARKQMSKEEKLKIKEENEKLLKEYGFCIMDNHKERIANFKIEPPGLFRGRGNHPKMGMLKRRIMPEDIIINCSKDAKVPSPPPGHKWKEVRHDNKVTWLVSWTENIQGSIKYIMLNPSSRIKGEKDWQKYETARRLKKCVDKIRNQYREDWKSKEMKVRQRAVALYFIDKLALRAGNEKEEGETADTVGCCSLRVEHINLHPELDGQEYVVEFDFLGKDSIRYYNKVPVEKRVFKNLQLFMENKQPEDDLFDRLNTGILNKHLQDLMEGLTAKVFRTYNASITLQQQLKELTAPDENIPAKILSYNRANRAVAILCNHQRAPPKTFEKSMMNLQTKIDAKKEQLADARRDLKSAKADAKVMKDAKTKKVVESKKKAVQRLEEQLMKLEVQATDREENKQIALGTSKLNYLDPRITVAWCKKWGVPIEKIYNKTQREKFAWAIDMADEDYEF
# [5] = target: T1, DNA topoisomerase 1 (Homo sapiens); test: Inhibition of topoisomerase 1-mediated unwinding of supercoiled plasmid DNA at 0.1 to 1.0 uM
# [6] = target: DNA topoisomerase 2-alpha (Homo sapiens) (UniProt P11388); test: Inhibition of DNA topoisomerase 2-mediated unwinding of supercoiled pBR322 DNA
# DNA topoisomerase 2-alpha (Homo sapiens), sequence (P11388 whole entry): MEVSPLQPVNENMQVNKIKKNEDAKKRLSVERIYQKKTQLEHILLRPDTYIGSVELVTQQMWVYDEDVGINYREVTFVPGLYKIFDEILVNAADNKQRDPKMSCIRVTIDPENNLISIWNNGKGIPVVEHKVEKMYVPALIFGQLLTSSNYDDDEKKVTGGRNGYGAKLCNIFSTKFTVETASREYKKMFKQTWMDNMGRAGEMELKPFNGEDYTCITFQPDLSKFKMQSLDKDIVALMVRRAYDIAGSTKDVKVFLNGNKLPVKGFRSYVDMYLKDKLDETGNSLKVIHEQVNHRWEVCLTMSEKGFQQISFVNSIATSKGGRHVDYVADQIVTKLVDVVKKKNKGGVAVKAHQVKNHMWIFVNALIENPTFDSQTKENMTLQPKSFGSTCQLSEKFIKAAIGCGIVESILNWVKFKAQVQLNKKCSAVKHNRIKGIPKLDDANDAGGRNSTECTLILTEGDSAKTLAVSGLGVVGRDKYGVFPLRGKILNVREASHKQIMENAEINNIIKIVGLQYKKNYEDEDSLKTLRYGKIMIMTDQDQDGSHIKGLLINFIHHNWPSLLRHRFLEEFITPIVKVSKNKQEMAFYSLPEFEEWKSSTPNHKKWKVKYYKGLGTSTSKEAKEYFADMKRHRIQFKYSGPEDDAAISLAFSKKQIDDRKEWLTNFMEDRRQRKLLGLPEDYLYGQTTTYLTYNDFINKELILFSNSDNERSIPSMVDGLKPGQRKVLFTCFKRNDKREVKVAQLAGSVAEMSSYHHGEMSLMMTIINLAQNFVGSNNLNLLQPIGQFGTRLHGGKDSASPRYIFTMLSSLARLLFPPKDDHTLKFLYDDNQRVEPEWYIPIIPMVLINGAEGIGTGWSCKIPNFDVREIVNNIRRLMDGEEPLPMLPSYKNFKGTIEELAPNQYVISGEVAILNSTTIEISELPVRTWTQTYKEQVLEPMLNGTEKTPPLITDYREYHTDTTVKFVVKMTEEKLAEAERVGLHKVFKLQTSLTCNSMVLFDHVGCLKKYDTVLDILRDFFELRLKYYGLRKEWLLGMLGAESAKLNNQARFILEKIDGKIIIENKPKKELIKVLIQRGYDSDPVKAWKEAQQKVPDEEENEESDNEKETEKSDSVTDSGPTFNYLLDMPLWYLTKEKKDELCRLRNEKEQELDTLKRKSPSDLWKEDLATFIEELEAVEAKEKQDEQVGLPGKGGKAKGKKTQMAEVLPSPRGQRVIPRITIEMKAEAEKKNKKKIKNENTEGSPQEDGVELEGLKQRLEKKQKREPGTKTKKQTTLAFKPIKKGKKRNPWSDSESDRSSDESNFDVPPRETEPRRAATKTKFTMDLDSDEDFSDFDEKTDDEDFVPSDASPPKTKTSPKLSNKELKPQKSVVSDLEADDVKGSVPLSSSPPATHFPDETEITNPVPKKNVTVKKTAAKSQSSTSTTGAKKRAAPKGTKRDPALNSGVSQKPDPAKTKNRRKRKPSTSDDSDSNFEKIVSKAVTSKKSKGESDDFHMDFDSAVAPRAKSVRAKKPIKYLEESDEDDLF
# HeLa [7] = test: Antiproliferative activity against human HeLa cells at 0.3 to 1.0 uM after 48 hrs by MTT assay; assay type: functional
# HeLa [8] = test: Antiproliferative activity against human HeLa cells assessed as reduction in colony number after 48 hrs by clonogenic assay; assay type: functional, cell-based
# HeLa [9] = test: Antiproliferative activity against human HeLa cells assessed as reduction in colony size after 48 hrs by clonogenic assay; assay type: functional, cell-based
# PC-3 [10] = test: Cell cycle arrest in human PC3 cells by accumulation at subG1 phase at 0.1 uM after 48 hrs by propidium iodide staining-based flow cytometry (Rvb=0.8%); assay type: functional
# PC-3 [11] = test: Cell cycle arrest in human PC3 cells by accumulation at subG1 phase at 0.3 uM after 48 hrs by propidium iodide staining-based flow cytometry (Rvb=0.8%); assay type: functional
# PC-3 [12] = test: Cell cycle arrest in human PC3 cells by accumulation at G1 phase at 0.1 uM after 48 hrs by propidium iodide staining-based flow cytometry (Rvb=68.4%); assay type: functional
# PC-3 [13] = test: Cell cycle arrest in human PC3 cells by accumulation at G1 phase at 0.3 uM after 48 hrs by propidium iodide staining-based flow cytometry (Rvb=68.4%); assay type: functional
# PC-3 [14] = test: Cell cycle arrest in human PC3 cells by accumulation at S phase at 0.1 uM after 48 hrs by propidium iodide staining-based flow cytometry (Rvb=11.2%); assay type: functional
# PC-3 [15] = test: Cell cycle arrest in human PC3 cells by accumulation at S phase at 0.3 uM after 48 hrs by propidium iodide staining-based flow cytometry (Rvb=11.2%); assay type: functional
# PC-3 [16] = test: Cell cycle arrest in human PC3 cells by accumulation at G2/M phase at 0.1 uM after 48 hrs by propidium iodide staining-based flow cytometry (Rvb=19.4%); assay type: functional
# PC-3 [17] = test: Cell cycle arrest in human PC3 cells by accumulation at G2/M phase at 0.3 uM after 48 hrs by propidium iodide staining-based flow cytometry (Rvb=19.4%); assay type: functional
# PC-3 [18] = test: Induction of apoptosis in human PC3 cells assessed as PARP cleavage at 0.1 uM after 48 hrs by Western blot; assay type: functional, cell-based
# PC-3 [19] = test: Induction of apoptosis in human PC3 cells assessed as caspase 3 activation at 0.1 uM after 48 hrs by Western blot; assay type: functional, cell-based
# PC-3 [20] = test: Induction of apoptosis in human PC3 cells assessed as gammaH2AX phosphorylation mediated DNA damage at 0.1 uM after 48 hrs by Western blot; assay type: functional, cell-based
Compound,IC50 (HeLa [1]) [µM],IC50 (A549) [µM],IC50 (PC-3 [3]) [µM],IC50 [2] [µM],IC50 (Detroit 551) [µM],further results
Fc1ccc2nc(NCCN3CCNCC3)c3c4ccccc4[nH]c3c2c1,5.35,6.2,12.3,2.67,,
NCCCCCCCNc1nc2ccccc2c2[nH]c3ccccc3c12,2.67,2.23,6.25,2.54,,
c1ccc2c(c1)nc(NCCCCCCCNc1nc3ccccc3c3[nH]c4ccccc4c13)c1c3ccccc3[nH]c21,1.19,1.19,6.56,1.61,,
Fc1ccc2nc(NCCN3CCOCC3)c3c4ccccc4[nH]c3c2c1,4.32,6.73,6.84,5.29,,
OCCNCCNc1nc2ccc(F)cc2c2[nH]c3ccccc3c12,1.49,0.93,6.51,1.31,,
Oc1ccc(CCNc2nc3ccccc3c3[nH]c4ccccc4c23)cc1O,3.77,10.3,15.2,6.66,,
Oc1ccc(Nc2nc3ccccc3c3[nH]c4ccccc4c23)cc1,1.54,3.87,5.43,5.7,25.4,
Oc1ccc(CCNc2nc3ccc(F)cc3c3[nH]c4ccccc4c23)cc1,1.33,9.19,6.32,7.78,,
Oc1cccc(Nc2nc3ccccc3c3[nH]c4ccccc4c23)c1,10.3,10.3,18.4,7.23,42.5,
COc1ccc(Nc2nc3ccccc3c3[nH]c4ccccc4c23)cc1,11.4,10.9,21,7.78,,
Oc1ccccc1Nc1nc2ccccc2c2[nH]c3ccccc3c12,4.69,17.7,> 30,21.9,,
c1ccc(Nc2nc3ccccc3c3[nH]c4ccccc4c23)cc1,> 30,> 30,> 30,> 30,,

# Compounds with a lower IC50 (HeLa [1]), results first:
IC50 (HeLa [1]) [µM],IC50 (A549) [µM],IC50 (PC-3 [3]) [µM],Compound,IC50 [2] [µM],IC50 (Detroit 551) [µM],further results
0.072,0.084,2.55,NCCCCCCNc1nc2ccccc2c2[nH]c3ccccc3c12,2.51,,
0.68,0.53,1.77,c1ccc2c(c1)nc(NCCN1CCNCC1)c1c3ccccc3[nH]c21,0.38,2.6,
0.33,,1.76,COc1cccc2c1C(=O)c1c(O)c3c(c(O)c1C2=O)C[C@@](O)(C(=O)CO)C[C@@H]3O[C@H]1C[C@H](N)[C@H](O)[C@H](C)O1 [DOXORUBICIN],,,
0.87,1.13,2.84,c1ccc2c(c1)nc(NCCN1CCOCC1)c1c3ccccc3[nH]c21,1.29,,
0.61,0.83,5.79,CN(C)CCNc1nc2ccccc2c2[nH]c3ccccc3c12,1.6,2.21,
0.74,0.7,5.81,OCCNCCNc1nc2ccccc2c2[nH]c3ccccc3c12,0.72,1.74,
0.31,0.5,0.59,c1ccc2c(c1)nc(NCCCCCCNc1nc3ccccc3c3[nH]c4ccccc4c13)c1c3ccccc3[nH]c21,1.47,,
0.52,5.39,8.98,COc1ccc(CCNc2nc3ccccc3c3[nH]c4ccccc4c23)cc1OC,5.83,19.3,
0.068,0.11,0.08,Cl.c1ccc2c(c1)nc(NCCCNCCCNc1nc3ccccc3c3[nH]c4ccccc4c13)c1c3ccccc3[nH]c21,0.09,1.98,inhibition [4]: Active; inhibition [5]: inactive; inhibition [6]: Dose-dependent effect; inhibition (INH) (HeLa [7]): 95%; Activity (HeLa [8]): Dose-dependent effect; Activity (HeLa [9]): Dose-dependent effect; Activity (PC-3 [10]): 30.6%; Activity (PC-3 [11]): 72.6%; Activity (PC-3 [12]): 40.3%; Activity (PC-3 [13]): 15.8%; Activity (PC-3 [14]): 4.5%; Activity (PC-3 [15]): 2.7%; Activity (PC-3 [16]): 24.1%; Activity (PC-3 [17]): 8.7%; Activity (PC-3 [18]): Active; Activity (PC-3 [19]): Active; Activity (PC-3 [20]): Active
0.59,5.74,8.94,Oc1ccc(CCNc2nc3ccccc3c3[nH]c4ccccc4c23)cc1,5.24,4.3,
0.89,0.43,2.01,CN(CCCNc1nc2ccccc2c2[nH]c3ccccc3c12)CCCNc1nc2ccccc2c2[nH]c3ccccc3c12,0.28,2.14,
0.85,0.5,3.65,CN(C)CCCNc1nc2ccccc2c2[nH]c3ccccc3c12,0.79,2.18,
0.65,1.03,7.98,NCCNCCNc1nc2ccccc2c2[nH]c3ccccc3c12,2.17,3.88,
0.62,0.99,5.65,OCCNc1nc2ccccc2c2[nH]c3ccccc3c12,1.02,3.15,
